The target in one assay is Cannabinoid receptor 1 (Homo sapiens, UniProt P21554). The assay is described as follows: Agonist activity at CB1R (unknown origin) CHO cells stably expressing Galpha16 assessed as increase in intracellular calcium level by microplate reader based assay. It counts as functional, cell-based. (In general: A change in cytosolic calcium serves as a functional read-out for many receptors and channels.)

Assay [1] addresses T1, Cannabinoid receptor 2 (Homo sapiens, UniProt P34972). The assay is described as follows: Agonist activity at CB2R (unknown origin) CHO cells stably expressing Galpha16 assessed as increase in intracellular calcium level by microplate reader based assay. The class given is functional, cell-based. Particulars: read-out: EC50.
Assay [2] deals with T1, Cannabinoid receptor 2. Nature of the assay: Agonist activity at CB2R (unknown origin) CHO cells stably expressing Galpha16 assessed as increase in intracellular calcium level by microplate reader based assay relative to CP55940. It counts as functional, cell-based.
The subject of another assay is CHO. Nature of the assay: Selectivity index, ratio of EC50 for CB1R (unknown origin) CHO cells stably expressing Galpha16 to EC50 for CB2R (unknown origin) CHO cells stably expressing Galpha16. It counts as cell-based. Particulars: Homo sapiens.

SMILES strings stand for the structures.

Sequence of Cannabinoid receptor 1 (P21554 whole entry): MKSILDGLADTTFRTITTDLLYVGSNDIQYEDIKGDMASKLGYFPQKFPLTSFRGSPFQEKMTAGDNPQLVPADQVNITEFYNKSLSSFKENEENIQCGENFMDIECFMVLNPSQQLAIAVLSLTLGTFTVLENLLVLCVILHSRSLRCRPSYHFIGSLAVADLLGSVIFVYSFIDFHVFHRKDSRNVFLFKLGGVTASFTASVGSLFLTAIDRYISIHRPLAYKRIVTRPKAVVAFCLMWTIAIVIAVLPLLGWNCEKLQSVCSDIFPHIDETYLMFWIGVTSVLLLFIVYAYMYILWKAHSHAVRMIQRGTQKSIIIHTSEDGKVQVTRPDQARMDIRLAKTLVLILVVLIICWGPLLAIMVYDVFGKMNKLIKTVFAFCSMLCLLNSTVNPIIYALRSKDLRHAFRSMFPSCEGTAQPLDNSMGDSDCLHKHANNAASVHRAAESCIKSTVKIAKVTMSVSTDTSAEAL
T1 sequence (P34972 whole entry): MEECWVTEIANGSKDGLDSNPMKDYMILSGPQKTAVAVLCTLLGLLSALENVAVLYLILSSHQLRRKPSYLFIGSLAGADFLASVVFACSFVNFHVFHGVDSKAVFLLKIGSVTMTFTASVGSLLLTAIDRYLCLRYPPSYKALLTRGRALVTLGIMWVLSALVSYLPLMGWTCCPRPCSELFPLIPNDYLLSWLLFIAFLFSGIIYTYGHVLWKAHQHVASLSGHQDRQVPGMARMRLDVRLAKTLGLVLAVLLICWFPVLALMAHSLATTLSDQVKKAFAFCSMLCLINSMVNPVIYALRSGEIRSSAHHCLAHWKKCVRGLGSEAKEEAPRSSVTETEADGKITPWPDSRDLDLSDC

Broadly, the EC50 is the concentration that produces a half-maximal response. The Emax is the size of the effect at its maximum, as opposed to the concentration needed. With `CCCCCN1C(=O)/C(=C/NC2CCCCC2)C(=O)c2ccccc21`, the results for the EC50 at Cannabinoid receptor 1 and at Cannabinoid receptor 2 [1] were more than 10 µM and 0.472 µM, respectively. Moreover, the Emax at Cannabinoid receptor 2 [2] came out at 101%. For the same compound, the Ratio EC50 in the assay with CHO was more than 21.2.

Take `CCCCN1C(=O)/C(=C/NCc2ccc(F)cc2)C(=O)c2cccc(C)c21`: the EC50 at Cannabinoid receptor 1 and at Cannabinoid receptor 2 [1] was more than 10 µM in each case.

`CCCCN1C(=O)/C(=C/NC(C)CCC)C(=O)c2cccc(C)c21` (stereo not drawn): the concentration for a half-maximal effect (EC50) on Cannabinoid receptor 1 was more than 10 µM; on Cannabinoid receptor 2 [1] it was 0.116 µM. The Emax at Cannabinoid receptor 2 [2] is 53.6%. For the same compound, in the assay on CHO, the Ratio EC50 was more than 86.2.

`CCCCN1C(=O)/C(=C/NC23CC4CC(CC(C4)C2)C3)C(=O)c2cccc(C)c21`: the 50% effective concentration (EC50) is more than 10 µM at Cannabinoid receptor 1 and 0.317 µM on Cannabinoid receptor 2 [1]. In addition, the Emax at Cannabinoid receptor 2 [2] was 137%. In the assay on CHO, the Ratio EC50 is more than 31.5.

In the case of `CCCCN1C(=O)/C(=C/NC(C)C)C(=O)c2cccc(C)c21`, the EC50 at Cannabinoid receptor 1 and on Cannabinoid receptor 2 [1] was more than 10 µM throughout.

As for `CCCCN1C(=O)/C(=C/Nc2ccccn2)C(=O)c2cccc(C)c21`, the EC50 at Cannabinoid receptor 1 was more than 10 µM; at Cannabinoid receptor 2 [1], 2.39 µM. In addition, the Emax at Cannabinoid receptor 2 [2] came to 47.2%. For the same compound, the Ratio EC50 in the assay with CHO is more than 4.18.

With `C=CCCN1C(=O)/C(=C/NC2CCCCC2)C(=O)c2cccc(C)c21`, the EC50 is more than 10 µM at Cannabinoid receptor 1 and 0.749 µM at Cannabinoid receptor 2 [1]. Further, the Emax on Cannabinoid receptor 2 [2] stood at 135%. Also, the Ratio EC50 in the assay on CHO is more than 13.4.

Regarding `CCCCN1C(=O)/C(=C/N[C@H]2CC[C@H](O)CC2)C(=O)c2cccc(C)c21`, the EC50 on Cannabinoid receptor 1 and on Cannabinoid receptor 2 [1] was more than 10 µM throughout.

For `O=C(NCC1CCOCC1)c1cnc(Nc2ccc(Cl)cc2Cl)nc1C(F)(F)F` [GW842166X], the EC50 was more than 10 µM on Cannabinoid receptor 1 and 0.437 µM on Cannabinoid receptor 2 [1]. Also, at Cannabinoid receptor 2 [2], the Emax is 91.6%. In addition, the Ratio EC50 in the assay on CHO was more than 22.9.

`CCCCN1C(=O)/C(=C/NC2CCCCC2)C(=O)c2ccccc21`: the EC50 was more than 10 µM on Cannabinoid receptor 1 and 1.58 µM on Cannabinoid receptor 2 [1]. Moreover, the maximal effect (Emax) at Cannabinoid receptor 2 [2] came out at 185%. In addition, the Ratio EC50 in the assay on CHO was more than 6.33.

`CCCCN1C(=O)/C(=C/NC2CCCCC2)C(=O)c2cccc(Cl)c21`: the EC50 on Cannabinoid receptor 1 and at Cannabinoid receptor 2 [1] was more than 10 µM in each case.

Regarding `CCCCN1C(=O)/C(=C/NC2CCCC2)C(=O)c2cccc(C)c21`, the figures for the 50% effective concentration (EC50) at Cannabinoid receptor 1 and at Cannabinoid receptor 2 [1] were more than 10 µM and 0.058 µM, respectively. Also, the Emax on Cannabinoid receptor 2 [2] was 129%. The Ratio EC50 in the assay with CHO was more than 172.

For `CCCCN1C(=O)/C(=C/NN2CCCCC2)C(=O)c2cccc(C)c21`, the figures for the EC50 on Cannabinoid receptor 1 and at Cannabinoid receptor 2 [1] were more than 10 µM and 0.993 µM, respectively. Also, the Emax on Cannabinoid receptor 2 [2] worked out at 58%. In addition, in the assay on CHO, the Ratio EC50 is more than 10.1.

For the compound `CCCCN1C(=O)/C(=C/NCc2cccnc2)C(=O)c2cccc(C)c21`, the EC50 on Cannabinoid receptor 1 and on Cannabinoid receptor 2 [1] was more than 10 µM in each case.

Consider `CCCCN1C(=O)/C(=C/NCC2CC2)C(=O)c2cccc(C)c21`, for which the EC50 at Cannabinoid receptor 1 was more than 10 µM; on Cannabinoid receptor 2 [1], 0.127 µM. In addition, the Emax at Cannabinoid receptor 2 [2] is 43.4%. The Ratio EC50 with CHO is more than 78.7.

As to `CCCCN1C(=O)/C(=C/NC2CCCCC2)C(=O)c2c(C)cccc21`, the EC50 on Cannabinoid receptor 1 is more than 10 µM; on Cannabinoid receptor 2 [1], 0.341 µM. Moreover, at Cannabinoid receptor 2 [2], the Emax came to 104%. Besides, in the assay with CHO, the Ratio EC50 is more than 29.3.

`CCCCN1C(=O)/C(=C/NN2CCOCC2)C(=O)c2cccc(C)c21`: the EC50 on Cannabinoid receptor 1 is more than 10 µM; at Cannabinoid receptor 2 [1] it was 0.477 µM. Also, on Cannabinoid receptor 2 [2], the Emax worked out at 78.7%. For the same compound, the Ratio EC50 with CHO is more than 21.

For `CCCCCN1C(=O)/C(=C/NC2CCCCC2)C(=O)c2cccc(CC)c21`, the EC50 at Cannabinoid receptor 1 and on Cannabinoid receptor 2 [1] was more than 10 µM throughout.

In the case of `CCCCCN1C(=O)/C(=C/NC2CCCCC2)C(=O)c2c(OC)cccc21`, the EC50 on Cannabinoid receptor 1 and on Cannabinoid receptor 2 [1] was more than 10 µM in each case.

For `CCCCN1C(=O)/C(=C/Nc2ccc(F)cc2)C(=O)c2cccc(C)c21`, the EC50 at Cannabinoid receptor 1 and on Cannabinoid receptor 2 [1] was more than 10 µM each time.

Consider `CCCCCN1C(=O)/C(=C/NC2CCCCC2)C(=O)c2cccc(OC)c21`, for which the half-maximal effective concentration (EC50) at Cannabinoid receptor 1 and at Cannabinoid receptor 2 [1] was more than 10 µM throughout.

In the case of `CCCCN1C(=O)/C(=C/NCCC)C(=O)c2cccc(C)c21`, the EC50 on Cannabinoid receptor 1 and on Cannabinoid receptor 2 [1] was more than 10 µM throughout.

(Values after ChEMBL document CHEMBL3588836, “Development of Quinoline-2,4(1H,3H)-diones as Potent and Selective Ligands of the Cannabinoid Type 2 Receptor” (J Med Chem, 2015).)
